We go through 3 compounds from patent US9822139B2, “Pharmaceutical composition containing cyclometalated N-heterocyclic carbene complexes for cancer treatment” (THE UNIVERSITY OF HONG KONG, priority 2009, dated 2017).

One series relates to SUNE1 cells. Put plainly: Apoptosis induction by flow cytometry (AV-FITC / PI). The format is cell-based. The following applies: 72 h. The procedure: Since cancer is characterized by uncontrolled cellular proliferation, there is a considerable interest in chemotherapeutic-induced apoptosis [J. C. Reed, Nature Rev. Drug Discov. 2002, 1, 111; D. W. Nicholson, Nature 2000, 407, 810]. Using fluorescein-labeled annexin V (AV-FITC) and propidium iodide (PI), the apoptosis-inducing properties of complex 1 in SUNE1 cells were examined by flow cytometry. […] The apoptosis-inducing properties of complex 1 at a lower dose (12 μM for 72 h) were also examined. […] According to the propagation profiles (formazan absorbance A550nm vs incubation time) of the treated SUNE1 cells, there is a trend of cellular growth inhibition in the presence of complex 1 at 12 μM level. Taken together with the flow cytometric results, complex 1 appears to inhibit cancer cell proliferation at 12 μM and induce apoptosis at higher doses (i.e. 60 μM).
The apoptosis-inducing properties of complex 14 in SUNE1 cells were also examined by flow cytometry. […] The apoptosis-inducing properties of complex 14 at a lower dose (1 μM for 72 h) were also examined. […] Thus, complex 14 could induce apoptosis at 10 μM.
In general terms: In flow cytometry, cells or beads pass a laser one at a time.

Series [1] has as its system lung fibroblast cells (CCD-19Lu). Put plainly: MTT cytotoxicity to non-cancerous cells, CCD-19Lu. It is filed as cell-based, human. The following applies: 72 h, non-cancerous lung fibroblast cells CCD-19Lu. The protocol: (§1) By means of MTT assays, the cytotoxic properties of cyclometalated N-heterocyclic carbene complexes (1-25) were determined toward some established human cancer cell lines including hepatocellular carcinoma (HepG2), cervical epithelioid carcinoma (HeLa), epithelial carcinoma (KB and its camptothecin-resistant cell line KB100), non-small cell lung carcinoma (NCI-H460), leukemia (HL-60), breast carcinoma (MDA-MB-231), melanoma (B16) and nasopharyngeal carcinoma (SUNE1). […] In terms of the IC50 values, they display similar cytotoxic properties compared to the reference complexes cisplatin and camptothecin (CPT).
Using lung fibroblast cells (CCD-19Lu), the cytotoxicity of the complexes to non-cancerous cells was also examined.

The test system of another series is leukemia (HL-60). Put plainly: MTT cytotoxicity assay, HL-60. The following applies: 72 h. It is filed as cell-based, human. The procedure: (§2) Example 2 describes the in vitro cytotoxicity, which is indicative of the induction of cell death and/or inhibition of cellular proliferation of cancer cells, of the cyclometalated N-heterocyclic complexes on cervical epithelioid carcinoma, hepatocellular carcinoma, leukemia, nasopharyngeal carcinoma, breast carcinoma, melanoma, and lung carcinoma.
as §1
Background: Tetrazolium dyes change colour on reduction, which living cells bring about.

Series [2] deals with nasopharyngeal carcinoma (SUNE1). Nature of the series: MTT cytotoxicity assay, SUNE1. It is filed as cell-based, human. The following applies: 72 h. The protocol: as §2, §1
The test system of the next series is melanoma (B16). Nature of the series: MTT cytotoxicity assay, B16. The note with it: 72 h. The format is cell-based, mouse. The procedure:
as §2, §1

Series [3] concerns camptothecin-resistant cell line KB100. Nature of the series: MTT cytotoxicity assay, KB100. The note with it: 72 h. It is filed as cell-based, human. The procedure: as §2, §1
Series [4] relates to breast carcinoma (MDA-MB-231). Nature of the series: MTT cytotoxicity assay, MDA-MB-231. The format is cell-based, human. The note with it: 72 h, MBA-MD-231. The procedure:
as §2, §1

Series [5] concerns epithelial carcinoma (KB). Put plainly: MTT cytotoxicity assay, KB. The following applies: 72 h. The format is cell-based, human. The protocol: as §2, §1
The subject of another series is NCI-H460 tumor. Put plainly: In vivo anti-cancer study, NCI-H460 tumor in nude mice. The following applies: twice-a-week intraperitoneal injection; for inhibition of NCI-H460 tumor growth: 28 days. Set-up: species or system BALB/c AnN-nu mice (nude mice). An excerpt:
For the complex 14, four-week-old male BALB/c AnN-nu mice (nude mice) were obtained from the laboratory of PearL Materia Medica Development (Shenzhen) Ltd. Tumor cells (1×10^6) resuspended in DMEM medium were implanted by subcutaneous injection on the right flank of the mice. When tumors were approximately 50 mm^3 in size, animals were randomly separated into four groups to receive treatment of twice-a-week intraperitoneal injection of 20% PET vehicle control (20% PET=12% polyethylene glycol 400; 6% ethanol; 2% Tween 20; 80% phosphate-buffered saline), complex 14 at 1 mg/kg, complex 14 at 3 mg/kg or cyclophosphamide at 30 mg/kg. Volumes of the tumor were measured every 3 to 4 days. Tumor volume was calculated by the formula: abc/2 in which a, represents tumor length; b, the width; and c, tumor thickness, as measured with a caliper and expressed in millimeter. After 28 days, the mice were sacrificed and the tumors were taken out and their weights were measured.

The subject of series [6] is cervical epithelioid carcinoma (HeLa). Nature of the series: MTT cytotoxicity assay, HeLa. It is filed as cell-based, human. The following applies: 72 h. The protocol: as §2, §1
The subject of series [7] is non-small cell lung carcinoma (NCI-H460). Nature of the series: MTT cytotoxicity assay, NCI-H460. The format is cell-based, human. The following applies: 72 h. The protocol:
as §2, §1

Series [8] concerns hepatocellular carcinoma (HepG2). Nature of the series: MTT cytotoxicity assay, HepG2. The following applies: 72 h. The format is cell-based, human. The protocol:
as §2, §1

A further series addresses T1, TopoI (Homo sapiens, UniProt P11387).
T1 construct: endogenous in cells; host or cells: KB cells
T1 sequence (P11387 1-765): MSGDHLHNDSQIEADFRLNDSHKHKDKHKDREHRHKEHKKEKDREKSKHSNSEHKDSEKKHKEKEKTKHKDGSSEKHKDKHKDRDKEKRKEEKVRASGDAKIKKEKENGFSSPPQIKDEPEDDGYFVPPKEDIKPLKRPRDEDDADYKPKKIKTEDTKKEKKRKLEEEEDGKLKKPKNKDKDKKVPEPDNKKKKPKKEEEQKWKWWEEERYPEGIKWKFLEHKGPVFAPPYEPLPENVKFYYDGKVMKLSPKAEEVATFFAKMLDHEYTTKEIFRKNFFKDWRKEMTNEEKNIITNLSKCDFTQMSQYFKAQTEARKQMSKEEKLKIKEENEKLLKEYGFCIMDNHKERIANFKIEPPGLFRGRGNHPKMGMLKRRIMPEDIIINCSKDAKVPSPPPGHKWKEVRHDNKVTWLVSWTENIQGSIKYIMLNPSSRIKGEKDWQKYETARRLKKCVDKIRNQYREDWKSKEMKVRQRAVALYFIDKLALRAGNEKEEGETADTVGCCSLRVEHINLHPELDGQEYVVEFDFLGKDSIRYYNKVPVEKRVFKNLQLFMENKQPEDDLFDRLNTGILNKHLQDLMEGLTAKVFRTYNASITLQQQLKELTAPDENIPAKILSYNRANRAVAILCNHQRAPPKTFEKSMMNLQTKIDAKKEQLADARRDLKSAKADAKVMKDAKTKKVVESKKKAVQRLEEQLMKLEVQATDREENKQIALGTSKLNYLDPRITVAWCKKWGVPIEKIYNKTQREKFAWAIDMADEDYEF
Put plainly: Band depletion assay for TopoI cleavable complexes. It is filed as cell-based. The following applies: KB cells. An excerpt: In this assay, while TopoI-DNA cleavable complexes are trapped by alkaline lysis, free TopoI is detected as an immunoreactive band.

A further series has as its system KB cells. Nature of the series: Alkaline comet assay for DNA strand breaks. The format is cell-based. The note with it: for strand breaks on chromosomal DNA (comet assay): 3 h, KB cells; for reversal of DNA cleavage events upon second incubation: second incubation at 55° C. for 10 min.
Series [9] concerns PLC tumor (hepatocellular carcinoma). Put plainly: In vivo anti-cancer study, nude mice bearing PLC tumor. The note with it: 3 mg/kg/week for 28 days. From the text: Prompted by the prominent in vitro cytotoxicity and the potential cancer-cell selectivity, the in vivo anti-cancer property of complex 1 was preliminarily examined by using nude mice models with the approval from the Committee on the Use of Live Animals for Teaching and Research (The University of Hong Kong).

The target in the next series is T2, topoisomerase I (TopoI) (Homo sapiens, UniProt P11387).
T2 sequence (P11387 1-765): T1 sequence (P11387 1-765)
Nature of the series: TopoI-mediated relaxation of supercoiled DNA. The format is biochemical. An excerpt:
DNA strand breaks were also detected in complex 1-treated KB cells by alkaline comet assay. […] Topoisomerases have become one of the important cellular targets for anti-cancer treatment. It is believed that topoisomerase inhibitors prevent the ligation step of the cell cycle, generate DNA strand breaks, and subsequently induce apoptosis in cells. […] The assay was repeated on ethidium bromide containing gel (FIG. 4, lower).

Series [10] has as its system established human cancer cell lines. Put plainly: MTT cytotoxicity, panel of cancer cell lines (summary statements). The format is cell-based. The following applies: in terms of IC50, versus cisplatin. The protocol:
as §1

Broadly, the IC50 is the concentration at which inhibition is half-maximal. A high value points to weaker potency. Take `CCCCn1cc[n+](CCCC)[c]1[Pt-2]12[c]3ccccc3-c3cccc([n+]31)-c1cccc[n+]12.F[P-](F)(F)(F)(F)F` (centres unmarked) [Complex 14]: the “viable cells unstained by both AV-FITC and PI” value with SUNE1 cells (1 μM) was around 90%. In addition, the “SUNE1 cells in early apoptotic state” value with SUNE1 cells (10 μM) was 46.4%. The 50% inhibitory concentration (IC50) in series [1] came to 10 µM; in the series with leukemia (HL-60) it was 0.08 µM; in series [2], 0.14 µM; in the series on melanoma (B16), 0.15 µM; in series [3], 0.08 µM; in series [4], 0.04 µM. Further, the 50% inhibitory concentration (IC50) in series [5] stood at 0.04 µM; in series [6], 0.05 µM; in series [7] it was 0.09 µM; in series [8], 0.77 µM. The results for the “inhibition of NCI-H460 tumor growth” value in the series on NCI-H460 tumor (1 mg/kg) and in the series with NCI-H460 tumor (3 mg/kg) were “significantly less effective” and 55%, respectively. Further, in the series on NCI-H460 tumor (3 or 1 mg/kg), the body-weight loss result was “no significant weight loss”.

Take `CC[C@@]1(O)C(=O)OCc2c1cc1n(c2=O)Cc2cc3ccccc3nc2-1` [CPT, camptothecin]: the “band intensity of the TopoI band” value at TopoI (1 μM) is reported as “reduced the band intensity of the TopoI band”. Moreover, the “strand breaks on chromosomal DNA (comet assay)” value with KB cells (1 μM) is “induced extensive strand breaks on chromosomal DNA”. Moreover, the “reversal of DNA cleavage events upon second incubation” value in the series on KB cells is “partially reversed”.

As for `Cn1cc[n+](C)[c]1[Au-]12[c]3ccccc3-c3cccc([n+]31)-c1cccc[c]12.O=S(=O)([O-])C(F)(F)F` [Complex 1], in the series on SUNE1 cells (12 μM), the “viable cells unstained by both AV-FITC and PI” value is around 90%. Moreover, in the series with SUNE1 cells (60 μM), the “SUNE1 cells in early apoptotic state” value was 30.9%. In series [9] (nude mice), the “toxic side-effect including death and weight loss” value is “no apparent 1-induced toxic side-effect including death and weight loss was observed”. Moreover, the “suppression of tumor growth compared to vehicle control” value in series [9] (nude mice bearing PLC tumor) amounted to 47%. Besides, the concentration for half-maximal inhibition (IC50) in series [1] stood at 25 µM; with leukemia (HL-60), 0.48 µM; in the series on melanoma (B16), 0.33 µM; in series [3], 1.2 µM; in series [4], 0.62 µM; in series [5], 0.56 µM. Also, the IC50 in series [6] stood at 0.15 µM; in series [7], 0.17 µM; in series [8], 0.37 µM. In addition, the “inhibition of TopoI-mediated DNA relaxation” value at topoisomerase I (TopoI) (10 μM) was “completely inhibited”; at topoisomerase I (TopoI) (dose response, compared with CPT) it was “dose-dependently inhibits DNA relaxation at significant lower concentrations than CPT”. The “nicked DNA (stimulation of DNA cleavage by TopoI)” value on topoisomerase I (TopoI) (ethidium bromide containing gel) is given as “presence of nicked DNA was observed”. Also, the “fold higher cytotoxic activity than cisplatin” value in series [10] was in the range of 18 to 28 fold. The “band intensity of the TopoI band” value at TopoI (10 and 100 nM) is “reduced the band intensity of the TopoI band”. For the same compound, the “strand breaks on chromosomal DNA (comet assay)” value with KB cells (0.5 μM) was “induced extensive strand breaks on chromosomal DNA”. In addition, the “reversal of DNA cleavage events upon second incubation” value with KB cells is listed as “partially reversed”.
